Test results published in patent US20160271094A1, “Laquinimod Combination Therapy For Treatment Of Multiple Sclerosis” (priority 2013, published 2016).
Where a name gives a salt, the structure may show the parent alone.

What was measured:
Assay type in all cases: in vivo, mouse (C57BL/6)
MOG induced EAE [1] = assay: Example 1B: laquinimod in combination with DMF in MOG-induced EAE; details: Day 1 to 30; for % Inhibition 2: according to MMS; for % Inhibition 2 / % Inhibition 1 / % Inhibition 3: vs vehicle; for % Inhibition 1: according to incidence; for % Inhibition 3: activity according to GMS; for GMS value: group mean score; for MMS value: mean maximal score
MOG-induced EAE = assay: Example 1A: laquinimod alone or in combination with DMF in MOG-induced EAE (present tense)
MOG induced EAE [2] = assay: Example 1C: suboptimal dose of laquinimod combined with MEF or EMF in MOG induced EAE; details: for Group Mean Score / Incidence % inhibition / Incidence Total / Mean Disease Duration / Mean Maximal Score / Mean Onset days / Mortality Total % / GMS Inhibition % / MMS Inhibition %: study interrupted on day 21; for GMS Inhibition % / MMS Inhibition %: vs vehicle
[3] = DMF 45 mg/kg gavage bid (90 mg/kg/day)
[4] = EMF 135 mg/kg gavage twice a day from Day 1
[5] = EMF 135 mg/kg gavage twice a day from Day 1, listed as EFM
[6] = laquinimod 5 mg/kg/day gavage qd
[7] = laquinimod 10 mg/kg/day gavage qd
[8] = laquinimod 25 mg/kg/day gavage qd
[9] = laquinimod 5 mg/kg/day gavage (AM) from Day 1
[10] = laquinimod 25 mg/kg/day gavage (AM) from Day 1, positive control
[11] = MEF 90 mg/kg gavage twice a day from Day 1

COC(=O)/C=C/C(=O)OC [DMF, dimethyl fumarate]
Incidence (MOG induced EAE [1]; [3]): 13/15 | Mean Duration (MOG induced EAE [1]; [3]): 13.4 ± 6.2 days | Mean Onset (MOG induced EAE [1]; [3]): 17.1 ± 6.3 days | Mortality (MOG induced EAE [1]; [3]): 0/15 | % Inhibition 2 (MOG induced EAE [1]; [3]): 25.7% | % Inhibition 1 (MOG induced EAE [1]; [3]): 13.3% | % Inhibition 3 (MOG induced EAE [1]; [3]): 33.3% | GMS value (MOG induced EAE [1]; [3]): 1.4 ± 0.9 | MMS value (MOG induced EAE [1]; [3]): 2.6 ± 1.4 | inhibition of disease severity (MOG-induced EAE; DMF 25 mg/kg oral QD alone): moderately effective

CCOC(=O)/C=C/C(=O)OC [EMF, ethyl methyl fumarate]
Group Mean Score (MOG induced EAE [2]; [4]): 0.51 ± 0.2 | Incidence % inhibition (MOG induced EAE [2]; [4]): 46.6% | Incidence Total (MOG induced EAE [2]; [4]): 8/15 | Mean Disease Duration (MOG induced EAE [2]; [4]): 3.3 ± 0.9 days | Mean Maximal Score (MOG induced EAE [2]; [4]): 1.2 ± 0.38 | Mean Onset days (MOG induced EAE [2]; [4]): 18.4 ± 1.0 days | Mortality Total % (MOG induced EAE [2]; [4]): 0% | Incidence % inhibition (MOG induced EAE [2]; [5]): 46.7% | effectiveness in MOG induced EAE (conclusion) (MOG induced EAE [2]; EMF at 135 mg/kg BID alone): highly effective | GMS Inhibition % (MOG induced EAE [2]; [4]): 47.7% | MMS Inhibition % (MOG induced EAE [2]; [4]): 36.8% | GMS Inhibition % (MOG induced EAE [2]; [5]): 47.4%

CCN(C(=O)c1c(O)c2c(Cl)cccc2n(C)c1=O)c1ccccc1 [Laquinimod, laquinimod]
% Inhibition 2 (MOG induced EAE [1]; [6]): 40.0% | % Inhibition 2 (MOG induced EAE [1]; [7]): 82.9% | % Inhibition 2 (MOG induced EAE [1]; [8]): 100.0% | % Inhibition 1 (MOG induced EAE [1]; [6]): 33.3% | % Inhibition 1 (MOG induced EAE [1]; [7]): 73.3% | % Inhibition 1 (MOG induced EAE [1]; [8]): 100.0% | % Inhibition 3 (MOG induced EAE [1]; [6]): 61.9% | % Inhibition 3 (MOG induced EAE [1]; [7]): 90.5% | % Inhibition 3 (MOG induced EAE [1]; [8]): 100% | GMS value (MOG induced EAE [1]; [6]): 0.8 ± 0.7 | GMS value (MOG induced EAE [1]; [7]): 0.2 ± 0.5 | GMS value (MOG induced EAE [1]; [8]): 0.0 ± 0.0 | Incidence (MOG induced EAE [1]; [6]): 10/15 | Mean Duration (MOG induced EAE [1]; [6]): 8.0 ± 6.2 days | Mean Onset (MOG induced EAE [1]; [6]): 22.7 ± 6.4 days | Mortality (MOG induced EAE [1]; [6]): 0/15 | Incidence (MOG induced EAE [1]; [7]): 4/15 | Mean Duration (MOG induced EAE [1]; [7]): 1.8 ± 3.7 days | Mean Onset (MOG induced EAE [1]; [7]): 28.9 ± 3.8 days | Mortality (MOG induced EAE [1]; [7]): 0/15 | Incidence (MOG induced EAE [1]; [8]): 0/15 | Mean Duration (MOG induced EAE [1]; [8]): 0.0 ± 0.0 days | Mean Onset (MOG induced EAE [1]; [8]): 0.0 ± 0.0 days | Mortality (MOG induced EAE [1]; [8]): 0/15 | MMS value (MOG induced EAE [1]; [6]): 2.1 ± 1.7 | MMS value (MOG induced EAE [1]; [7]): 0.6 ± 0.2 | MMS value (MOG induced EAE [1]; [8]): 0.0 ± 0.0 | Group Mean Score (MOG induced EAE [2]; [9]): 0.64 ± 0.2 | Incidence % inhibition (MOG induced EAE [2]; [9]): 46.7% | Incidence Total (MOG induced EAE [2]; [9]): 8/15 | Mean Disease Duration (MOG induced EAE [2]; [9]): 4.0 ± 1.2 days | Mean Maximal Score (MOG induced EAE [2]; [9]): 1.3 ± 0.4 | Mean Onset days (MOG induced EAE [2]; [9]): 17.3 ± 1.24 days | Mortality Total % (MOG induced EAE [2]; [9]): 0% | Incidence % inhibition (MOG induced EAE [2]; [10]): 93.3% | Incidence Total (MOG induced EAE [2]; [10]): 1/15 | Mean Disease Duration (MOG induced EAE [2]; [10]): 0.3 ± 0.3 days | Mean Maximal Score (MOG induced EAE [2]; [10]): 0.1 ± 0.06 | Mean Onset days (MOG induced EAE [2]; [10]): 21.5 ± 0.5 days | Mortality Total % (MOG induced EAE [2]; [10]): 0% | EAE clinical signs (conclusion) (MOG induced EAE [2]; laquinimod at 25 mg/kg): significantly ameliorated EAE clinical signs | efficacy in MOG-induced EAE (conclusion) (MOG induced EAE [2]; laquinimod at 5 and 25 mg/kg): dose-dependent efficacy | GMS Inhibition % (MOG induced EAE [2]; [9]): 34.0% | MMS Inhibition % (MOG induced EAE [2]; [9]): 31.6% | GMS Inhibition % (MOG induced EAE [2]; [10]): 97.9% | MMS Inhibition % (MOG induced EAE [2]; [10]): 94.7% | inhibition of disease severity (MOG-induced EAE; laquinimod 0.06 mg/kg oral QD alone): moderately effective

CCOC(=O)/C=C/C(=O)O [MEF, monoethyl fumarate]
Group Mean Score (MOG induced EAE [2]; [11]): 1.23 ± 0.2 | Incidence % inhibition (MOG induced EAE [2]; [11]): 20% | Incidence Total (MOG induced EAE [2]; [11]): 12/15 | Mean Disease Duration (MOG induced EAE [2]; [11]): 7.1 ± 1.0 days | Mean Maximal Score (MOG induced EAE [2]; [11]): 2.3 ± 0.38 | Mean Onset days (MOG induced EAE [2]; [11]): 14.7 ± 1.0 days | Mortality Total % (MOG induced EAE [2]; [11]): 0% | alleviation of EAE disease signs (conclusion) (MOG induced EAE [2]; MEF at 90 mg/kg): not effective | GMS Inhibition % (MOG induced EAE [2]; [11]): 26.8% | MMS Inhibition % (MOG induced EAE [2]; [11]): −21.1% | GMS Inhibition % (MOG induced EAE [2]; MEF 90 mg/kg gavage twice a day from Day 1, listed as Mono EF): −26.8%
